In PubChem BioAssay AID1508591:

Conditions: rat; liver microsomes; pH 7.4; 15.0 min; 1.0 µM

Row | SMILES | half-life [min]
1 | CSc1ncc(Cl)c(C(=O)Nc2c(C)cccc2C)n1 | 5.48
2 | COc1cc(/C=C2\C(=O)Nc3ccccc32)ccc1O | 12
3 | COc1cccc(C(=O)NCCSc2c(-c3ccc(F)cc3)[nH]c3ccccc23)c1OC | 1.26
4 | Cc1ccc(S(=O)(=O)Nc2cc(Br)ccc2C(=O)Nc2nc(-c3ccccc3)cs2)cc1 | 9.6
5 | CC(=O)Nc1nc(-c2ccc3c(c2)CCN3C(=O)c2ccccc2C)c(C)s1 | 18
6 | COc1ccc2[nH]c(=O)c(-c3noc(-c4cccs4)n3)cc2c1 | 13
7 | CC1=C(C(=O)Nc2nncs2)C(c2ccccc2Br)N=C(Nc2nc3ccccc3o2)N1 (configuration not stated) | > 30
8 | COc1cc(-c2nc(Nc3ccc(F)c(F)c3)c3ccccc3n2)cc(OC)n1 | > 30
9 | NC(=O)C1CCN(c2ncc(-c3cccc(F)c3)s2)CC1 | 9.48
10 | C[N+]1([O-])[C@@H]2CC[C@H]1CC(OC(=O)C(CO)c1ccccc1)C2 (some centres not stated) | > 30
11 | CC(C)(C)c1ccc(-c2csc(N3CCC(C(N)=O)CC3)n2)cc1 | 13.9
12 | CCOc1ccc(CCNC(=O)c2ccc(C(=O)c3ccccc3)cc2)cc1OCC | 2.8
13 | CCOc1ccc(CCNC(=O)c2ccc(C3(C(F)(F)F)N=N3)cc2)cc1OCC | 11
14 | COc1cc(Nc2nc(-c3ccncc3)nc3ccccc23)ccc1NS(C)(=O)=O | 22
15 | COc1ccc2nc(C)cc(Nc3ccc(Cl)c(Cl)c3)c2c1 | 15.5
16 | O=C(NC1CC1)c1ccc(CSCc2ccccc2Cl)o1 | 1.74
17 | COc1cc(Nc2nc(-c3ccncc3)nc3ccccc23)ccc1N1CCN(C)CC1 | 11
18 | O=C1Nc2ccccc2C12CC2c1cc(Cl)c(O)c(Cl)c1 (configuration not stated) | 9.8
19 | Cc1ccc(S(=O)(=O)Nc2cnccc2C(=O)Nc2ccc(S(=O)(=O)Nc3nccs3)cc2)cc1 | 5.3
20 | COc1cc(CNCCO)cc(Cl)c1OCc1ccc(Cl)cc1Cl | 25.5
21 | CCC(Sc1nc2ccccc2c2nc(CCc3c(C)n[nH]c3C)nn12)C(=O)Nc1ccc(F)cc1 (configuration not stated) | 4.01

Row | SMILES | half-life [min]
22 | COC(=O)c1ccc(O)c2ncc(N3CCN(C)CC3)cc12 | 4.16
23 | Nc1cc(-c2nc(Nc3ccc(F)c(F)c3)c3ccccc3n2)ccn1 | 15
24 | CCN(CC)C(=O)c1ccc(O)c(OC)c1 | > 30
25 | CCOc1ccc(CCNC(=O)c2cc3ccncc3n2Cc2cccc(C)n2)cc1OCC | 29
26 | N=c1c2c(ccn1CCc1ccccc1)Oc1ccc3ccccc3c1C2c1ccccc1 (configuration not stated) | > 30
27 | CCn1cc(CNC(=O)c2cc(-c3ccc(C)cc3)nc3ccc(Br)cc23)c(C)n1 | 10.9
28 | Cc1ccc(OCCn2c(CCNC(=O)c3ccccc3Br)nc3ccccc32)cc1 | 1.6
29 | COc1c(C)cc(NC(=O)c2nn(Cc3ccc(F)cc3)c3c2CN(C(=O)c2ccc[nH]2)C[C@]3(C)C(N)=O)cc1C | > 30
30 | Cc1cnc(-c2ccccc2C(C)C)nc1NCC1CN(c2cccnc2)C1 | 2.6
31 | COc1ccc(-n2nc3c(N4CCCC(C(=O)NCCc5ccc(C)cc5)C4)nnc(C)c3c2C)cc1 (configuration not stated) | 2.6
32 | COc1cccc(CNc2ccc(S(=O)(=O)Nc3cccnc3)cc2)c1O | 15
33 | COc1oc(-c2cccc3ccccc23)nc1C(=O)O | > 30
34 | CCc1ccc(OC(C)C(=O)N2CCC(c3nc4ccccc4o3)CC2)cc1 (configuration not stated) | 1.32
35 | COc1cccc(C(=O)Nc2nc(-c3nnn(-c4cccc(Cl)c4C)c3C)ns2)c1 | 18.6
36 | Cc1sc(NC(=O)Cc2ccc3c(c2)OCO3)nc1-c1ccc2c(c1)CCN2C(=O)c1ccccc1C(F)(F)F | > 30
37 | Cc1ccc(NS(=O)(=O)c2ccc(C(=O)Nc3nc(-c4ccccc4)cs3)cc2)cc1 | 6.5
38 | O=C(Nc1cn[nH]c1-c1nc2ccc(CN3CCOCC3)cc2[nH]1)NC1CC1 | > 30
39 | Cc1nc(NC2CCCCC2)c2nc(-c3ccccc3)n(CCN(C)C)c2n1 | 3.74
40 | O=S(=O)(Nc1ccc2ccccc2c1)c1ccc(NCc2cccc(Cl)c2O)cc1 | 13
41 | COc1ccc(C)cc1Nc1c2c(nc3ccccc13)CCC2 | 1.55
42 | COc1cccc(NS(=O)(=O)c2ccc(C)cc2)c1C(=O)Nc1nc(-c2ccccc2)cs1 | 3.7
